From patent US11591368B2, “Peptides for cancer treatment” (CHUNG SHAN MEDICAL UNIVERSITY, priority 2017, dated 2023) come the findings set out here.

Series [1] concerns CL1-5 cells. The format is in vivo, mice. As to the method:
CL1-5 cells were washed, detached, and resuspended in PBS. Subsequently, a single-cell suspension containing 2×10^6 cell in 80 μL PBS was mixed with 20 μL 10× Matrigel (Corning, 5117012). The cell suspension was subcutaneously injected into the upper back of the immune deficient BALB/CAnN.Cg-Foxn1nu/CrlBltw mice. […] The tumor-bearing mice were divided into five groups (n=8/group). […] On day 13, the mice in the Fmoc-LT1-3 group were subcutaneously injected with 20 nmol Fmoc-LT1-3/γ-CD in the lower back daily. […] During the course of each treatment, the tumor volume was measured every 3 days. The mortality rates of mice were recorded, which included mice with tumor volume over 1500 mm^3. The percent of survival rate is recorded in FIG. 11 and the median survival of each group is calculated in Table 1.

Series [2] relates to CL1-5 cells. The series is described as follows: Cell proliferation assay in CL1-5 cells. In kind it is cell-based. To be noted: for growth inhibition (cell proliferation): Fmoc modified peptides, 24 h, FIG. 1 and FIG. 2; for Growth inhibition: LT fragments at 0, 12.5, 25 and 50 μM. As to the method: The peptides described below were Fmoc modified and dissolved in DMSO and […] and then used in cell proliferation assay. CL1-5 cells were cultured to 80% confluence in RPMI medium containing 10% FBS. After detachment, 3×10^4[…]cells were seeded onto 12-well plates. After 16 h of incubation, cells were either harvested before treatment (designated as 0 h), or treated with LT peptides for 24 h (designated 24 h), and viable cells were counted. Relative fold-change in cell number or percent increase in cell growth (%) was calculated by following formula: (Cell number24h−Cell number0h)/(Cell number of control24h−Cell number of control0h).

The test system of another series is CL1-5 lung cancer cells. The series is described as follows: Tumor growth in xenograft animal model. The format is in vivo. As to the method: Six-week old immune deficient BALB/CAnN.Cg-Foxn1nu/CrlBltw mice were housed in individual ventilated chambers (IVC). A total of 2×10^6 CL1-5 lung cancer cells in 100 μL PBS were mixed with 100 μL of 10× Matrigel. The lung cancer cells/Matrigel mix was injected subcutaneously to the lower back of the mice. Three days later, the mice were treated with 0, 10, 20, or 30 nmol of Fmoc-LT-1-3 subcutaneously everyday. The Fmoc-LT-1-3 peptide was dissolved in 100% DMSO and diluted to the desired concentration in PBS from day 3 to day 17. On the 18th day, we observed that 80% of control group animal, 40% of 10 nmol group animal, 20% of 20 nmol group animal, and 40% of 30 nmol group animal developed tumor. Percent of tumor free animal increased with increasing level of Fmoc-LT1-3 between 10 nmol and 20 nmol. […] This phenomenon may be due to lower solubility of Fmoc-LT1-3 at higher concentration. We thus decided to replace the solvent from DMSO with γ-CD, and diluted the peptide to the desired concentration for injection on the 18th day and thereafter. The volume of tumor was measured periodically. […] On the 39th day, animals were sacrificed. The tumor and organs were weighted, fixed and embedded in paraffin. Embedded tissue were sectioned and stained with hematoxylin-eosin for histologic analysis.

Series [3] has as its system CL1-5 cells. The series is described as follows: Cell invasion assay (Matrigel-coated modified Boyden chamber) in CL1-5 cells. The format is cell-based. The note with it: for Invasion inhibition: LT fragments at 0, 12.5, 25 and 50 μM, FIG. 12. The method, then:
Fmoc-LT1-3 peptides were used in cell invasion assay. A 24-well modified Boyden chamber with a polycarbonate membrane (8-μm pore size) was used for in vitro invasion assays. […] CL1-5 cells (3×10^4 cells/well) in RPMI medium with various concentrations of peptide were seeded onto the upper chamber. […] After 24 h of incubation, the cells were fixed with ice-cold 100% methanol and stained with 10% Giemsa. Following staining, cells on the upper side of the membrane were removed with a cotton swab. The number of invaded cells attached to the lower surface of the polycarbonate membranes was counted under a light microscope. All experiments were performed in triplicate.

The next series has as its system H1355. Description: Cell proliferation assay in H1355 lung cancer cell line. In kind it is cell-based. The note with it: H1355, FIG. 4.
A further series has as its system A549. The series is described as follows: Cell proliferation assay in A549 lung cancer cell line. The format is cell-based. To be noted: A549, FIG. 4.
The subject of the next series is H460. Description: Cell proliferation assay in H460 lung cancer cell line. The format is cell-based. The note with it: H460, FIG. 4.
For a further series, the system named is H1299. The series is described as follows: Cell proliferation assay in H1299 lung cancer cell line. The format is cell-based. To be noted: H1299, FIG. 4.

Where a SMILES comes first, the peptide text is derived from it. Where no end group is shown, it is not given here. The star is where a group is joined. Fmoc = O=C(OCC1c2ccccc2-c2ccccc21)*

As for `N.N.[Cl][Pt][Cl]` [cisplatin, reference compound], in the series on CL1-5 cells [1] (single agent: cisplatin 4 mg/kg IP weekly 4 times, or 20 nmol Fmoc-LT1-3/γ-CD s.c. daily), the Median survival worked out at 37.5 days.

Regarding “FAIVELLA (Fmoc-FAIVELLA) [LT-A2, Fmoc modified in the proliferation assay]”, the “growth inhibition (cell proliferation)” value in the series on CL1-5 cells [2] (CL1-5 cells) is given as “better inhibition activity than F-moc-LT1-3 peptide”.

Turning to “FHIVELAA (Fmoc-FHIVELAA) [LT-A7, Fmoc modified in the proliferation assay]”, the “growth inhibition (cell proliferation)” value in the series on CL1-5 cells [2] (CL1-5 cells) was “better inhibition activity than F-moc-LT1-3 peptide”.

On to `CC[C@H](C)[C@H](NC(=O)[C@H](Cc1c[nH]cn1)NC(=O)[C@H](Cc1ccccc1)NC(=O)OCC1c2ccccc2-c2ccccc21)C(=O)N[C@H](C(=O)N[C@@H](CCC(=O)O)C(=O)N[C@@H](CC(C)C)C(=O)N[C@@H](CC(C)C)C(=O)N[C@@H](C)C(=O)O)C(C)C` [Fmoc-LT1-3] (Fmoc-FHIVELLA-OH; N-terminus and C-terminus assumed), for which the “histologic analysis, toxicity” value in the series with CL1-5 lung cancer cells (hematoxylin-eosin stained tissue, day 39) is given as “did not reveal obvious toxicity”. In addition, in the series with CL1-5 lung cancer cells (treatment groups vs control group, day 39, FIG. 9), the “relative weight of organs” value is “no significant differences”. In addition, the “effect on cisplatin-induced toxicity” value in the series on CL1-5 cells [1] (combination treatment with cisplatin vs cisplatin only group) was “alleviate cisplatin-induced toxicity”.

Turning to ASAIYSVETINDGNFHIVELLA [LT-1], the Invasion inhibition result in the series with CL1-5 cells [3] was “inhibitory effect and Yes”. For the same molecule, in the series on CL1-5 cells [2] (CL1-5 cells), the Growth inhibition result was “inhibitory effect and Yes”.

For the molecule “Fmoc-LT-A3: Fmoc binds to N terminal of FHAVELLA (SEQ ID NO:10) (Fmoc-FHAVELLA)”, the “growth inhibition in lung cancer cell lines” value in the series with H1355 is reported as “greatly inhibited”; in the series on A549 it was “no effect”; in the series on H460, “greatly inhibited”; in the series on H1299, “partially inhibited”; in the series with CL1-5 cells [2] (CL1-5, FIG. 4), “greatly inhibited”. Also, in the series on CL1-5 cells [3] (Fmoc peptides, 24 h, FIG. 5), the cell invasion inhibition entry is listed as “inhibited cell invasion”. Further, in the series on CL1-5 cells [2] (CL1-5 cells), the “growth inhibition (cell proliferation)” value is on record as “best growth inhibition capability”. In addition, the “growth inhibition, dose effect experiment” value with CL1-5 cells [2] (Fmoc-LT-peptides, CL1-5 cells, FIG. 3) is reported as “best growth inhibition capability”.

LRQAPGQNGTSFHGCIRNLYINSE [LT-5]: in the series with CL1-5 cells [3], the Invasion inhibition result was “inhibitory effect on cell invasion only and Yes”. Moreover, the Growth inhibition result in the series with CL1-5 cells [2] (CL1-5 cells) was “No”.

Consider “FHIAELLA (Fmoc-FHIAELLA) [LT-A4, Fmoc modified in the proliferation assay]”, for which the “growth inhibition (cell proliferation)” value in the series on CL1-5 cells [2] (CL1-5 cells) is “better inhibition activity than F-moc-LT1-3 peptide”.

Consider “FHIVEALA (Fmoc-FHIVEALA) [LT-A6, Fmoc modified in the proliferation assay]”, for which the “growth inhibition (cell proliferation)” value in the series with CL1-5 cells [2] (CL1-5 cells) is “better inhibition activity than F-moc-LT1-3 peptide”.

For the molecule `O=S(=O)(NCCNC/C=C/c1ccc(Br)cc1)c1cccc2cnccc12` [H89, reference compound], the “LT-peptide-mediated growth inhibition together with PKA inhibitor (H89)” value with CL1-5 cells [2] (CL1-5 cells, FIG. 24) is given as “enhances growth inhibition activity”.

On to GGMPGKSNVASLRQAPGQNGTSF [LT-4], for which the Invasion inhibition result in the series with CL1-5 cells [3] is “inhibitory effect on cell invasion only and Yes”. Besides, the Growth inhibition result in the series with CL1-5 cells [2] (CL1-5 cells) is “No”.

For the molecule “AHIVELLA (Fmoc-AHIVELLA) [LT-A1, Fmoc modified in the proliferation assay]”, the “growth inhibition (cell proliferation)” value with CL1-5 cells [2] (CL1-5 cells) is reported as “better inhibition activity than F-moc-LT1-3 peptide”.

For KIITNLSKQSTLNFDSPLYVGG [LT-3], in the series on CL1-5 cells [3], the Invasion inhibition result was “inhibitory effect on cell invasion only and Yes”. Also, the Growth inhibition entry in the series with CL1-5 cells [2] (CL1-5 cells) is on record as “No”.
